Test [1] addresses IRAK4 (Homo sapiens (Human), UniProt Q9NWZ3). In words: IRAK4 Inhibition Assay. The test is classed as biochemical. The settings on record: IRAK4 Inhibition Assay; ATP 500 μM; read-out: IRAK4 IC50. An outline of the steps: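 Mobility-shift readout: fluorescent substrate and phosphoproduct resolved electrophoretically on Caliper LabChip 3000 after EDTA quench (35 mM). Enzyme reaction of IRAK4, substrates and test compound ran 60 min at room temperature.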

Test [2] relates to TLR2 induced IL-6 in peripheral blood mononuclear cells (PBMCs). In words: PBMC TLR2 Induced IL-6 Assay. The format is cell-based, human. Particulars: Homo sapiens, PBMC, PBMC TLR2 Induced IL-6 Assay; lipoteichoic acid stimulation, IL-6 by ELISA; read-out: Cell EC50. The essentials:
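Lipoteichoic acid at 10 µg/ml served as TLR2 stimulus for 5 hours, following a 30-minute compound pretreatment at 37° C. Cells were Ficoll-isolated human PBMCs, 250000 cells/well, cultured in RPMI plus 10% heat-inactivated FCS.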
For orientation: ELISA stands for enzyme-linked immunosorbent assay.

Chain of IRAK4 (Q9NWZ3 whole entry, species assumed): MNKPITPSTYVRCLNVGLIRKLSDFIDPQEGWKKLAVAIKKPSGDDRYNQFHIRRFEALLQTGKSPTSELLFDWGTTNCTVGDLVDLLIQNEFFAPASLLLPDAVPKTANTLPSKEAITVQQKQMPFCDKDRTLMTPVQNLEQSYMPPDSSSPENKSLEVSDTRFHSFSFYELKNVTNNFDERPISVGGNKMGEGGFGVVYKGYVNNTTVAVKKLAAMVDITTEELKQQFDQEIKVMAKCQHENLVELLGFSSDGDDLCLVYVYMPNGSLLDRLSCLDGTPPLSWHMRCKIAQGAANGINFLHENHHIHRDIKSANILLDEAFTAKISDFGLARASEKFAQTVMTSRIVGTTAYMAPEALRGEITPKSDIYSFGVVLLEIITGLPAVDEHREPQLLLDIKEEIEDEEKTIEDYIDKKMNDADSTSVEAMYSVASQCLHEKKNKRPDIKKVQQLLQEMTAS

In the case of `CC(C)(O)[C@H](F)CNC(=O)c1cnc(-n2ccc3cc(C#N)cnc32)cc1Nc1cccc(O)c1` [Example 46, (R)-6-(5-cyano-1H-pyrrolo[2,3-b]pyridin-1-yl)-N-(2-fluoro-3-hydroxy-3-methylbutyl)-4-((3-hydroxyphenyl)amino)nicotinamide], the IC50 in test [1] worked out at 2.2 nM. For the same compound, the EC50 in test [2] worked out at 23 nM.
In the same order, the values of `CC(C)Nc1cc(-n2ccc3cc(C#N)cnc32)ncc1C(=O)NCCCOC(C)C` [Example 47, 6-(5-cyano-1H-pyrrolo[2,3-b]pyridin-1-yl)-N-(3-isopropoxypropyl)-4-(isopropylamino) nicotinamide] are 5.6 nM and 173 nM.
On to `CC(C)(O)[C@H](F)CNC(=O)c1cnc(-n2ccc3cc(C#N)cnc32)cc1Nc1cccc(S(N)(=O)=O)c1` [Example 50, (R)-6-(5-cyano-1H-pyrrolo[2,3-b]pyridin-1-yl)-N-(2-fluoro-3-hydroxy-3-methylbutyl)-4-((3-sulfamoylphenyl)amino)nicotinamide], for which, in test [1], the IC50 is 1.9 nM. For the same compound, the EC50 in test [2] turned out to be 58 nM.
In the same order, the values of `CC(C)(O)[C@H](F)CNC(=O)c1cnc(-n2ccc3cc(C#N)cnc32)cc1NC[C@@H](F)C(C)(C)O` [Example 52, 6-(5-cyano-1H-pyrrolo[2,3-b]pyridin-1-yl)-N—((R)-2-fluoro-3-hydroxy-3-methylbutyl)-4-(((R)-2-fluoro-3-hydroxy-3-methylbutyl)amino)nicotinamide] are 2.4 nM and 66 nM.
In the same order, the values of `CC(C)(O)[C@H](F)CNC(=O)c1cnc(-n2ccc3cc(C#N)cnc32)cc1NC1CC(F)(F)C1` [Example 53, (R)-6-(5-cyano-1H-pyrrolo[2,3-b]pyridin-1-yl)-4-((3,3-difluorocyclobutyl)amino)-N-(2-fluoro-3-hydroxy-3-methylbutyl)nicotinamide] are 1.9 nM and 271 nM.
On to `CC(=O)Nc1cccc(Nc2cc(-n3ccc4cc(C#N)cnc43)ncc2C(=O)NC[C@@H](F)C(C)(C)O)c1` [Example 54, (R)-4-((3-acetamidophenyl)amino)-6-(5-cyano-1H-pyrrolo[2,3-b]pyridin-1-yl)-N-(2-fluoro-3-hydroxy-3-methylbutyl) nicotinamide], for which the IC50 in test [1] came to 1.8 nM. In addition, in test [2], the EC50 was determined as 254 nM.
With `CNC(=O)c1cccc(Nc2cc(-n3ccc4cc(C#N)cnc43)ncc2C(=O)NC[C@@H](F)C(C)(C)O)c1` [Example 55, (R)-6-(5-cyano-1H-pyrrolo[2,3-b]pyridin-1-yl)-N-(2-fluoro-3-hydroxy-3-methylbutyl)-4-((3-(methylcarbamoyl)phenyl)amino)nicotinamide], the IC50 in test [1] was 3.6 nM. Moreover, the EC50 in test [2] is 513 nM.
In the same order, the values of `CC(C)(O)[C@H](F)CNC(=O)c1cnc(-n2ccc3cc(C#N)cnc32)cc1Nc1cccc(C(N)=O)c1` [Example 56, (R)-4-((3-carbamoylphenyl)amino)-6-(5-cyano-1H-pyrrolo[2,3-b]pyridin-1-yl)-N-(2-fluoro-3-hydroxy-3-methylbutyl)nicotinamide] are 2.5 nM and 102 nM.
With `CC(C)(O)[C@H](F)CNC(=O)c1cnc(-n2ccc3cc(C#N)cnc32)cc1Nc1cccc(NS(C)(=O)=O)c1` [Example 57, (R)-6-(5-cyano-1H-pyrrolo[2,3-b]pyridin-1-yl)-N-(2-fluoro-3-hydroxy-3-methylbutyl)-4-((3-(methylsulfonamido)phenyl)amino) nicotinamide], the IC50 in test [1] was 1.5 nM. In addition, the EC50 in test [2] worked out at 173 nM.
Consider `CC(C)Nc1cc(-n2ccc3cc(C#N)cnc32)ncc1C(=O)NCCc1ccc(S(N)(=O)=O)cc1` [Example 58, 6-(5-cyano-1H-pyrrolo[2,3-b]pyridin-1-yl)-4-(isopropylamino)-N-(4-sulfamoylphenethyl)nicotinamide], for which the IC50 in test [1] is 2.7 nM. Further, in test [2], the EC50 worked out at 49 nM.
In the same order, the values of `CC(C)(O)c1cccc(Nc2cc(-n3ccc4cc(C#N)cnc43)ncc2C(=O)NC[C@@H](F)C(C)(C)O)c1` [Example 59, (R)-6-(5-cyano-1H-pyrrolo[2,3-b]pyridin-1-yl)-N-(2-fluoro-3-hydroxy-3-methylbutyl)-4-((3-(2-hydroxypropan-2-yl)phenyl)amino) nicotinamide] are 1.6 nM and 153 nM.
With `CC(C)(O)[C@H](F)CNC(=O)c1cnc(-n2ccc3cc(C#N)cnc32)cc1Nc1ccc(C(N)=O)cc1` [Example 60, (R)-4-((4-carbamoylphenyl)amino)-6-(5-cyano-1H-pyrrolo[2,3-b]pyridin-1-yl)-N-(2-fluoro-3-hydroxy-3-methylbutyl)nicotinamide], the IC50 in test [1] came out at 1.8 nM. For the same compound, the EC50 in test [2] stood at 24 nM.
As to `CC(C)(O)[C@H](F)CNC(=O)c1cnc(-n2ccc3cc(C#N)cnc32)cc1N[C@H]1CC[C@@](C)(O)CC1` [Example 61, 6-(5-cyano-1H-pyrrolo[2,3-b]pyridin-1-yl)-N—((R)-2-fluoro-3-hydroxy-3-methylbutyl)-4-(((1s,4S)-4-hydroxy-4-methylcyclohexyl)amino)nicotinamide], the IC50 in test [1] was 1.3 nM. In addition, the EC50 in test [2] was found to be 34 nM.
In the same order, the values of `CC(C)(O)[C@H](F)CNC(=O)c1cnc(-n2ccc3cc(C#N)cnc32)cc1N[C@H]1CC[C@](C)(O)CC1` [Example 62, 6-(5-cyano-1H-pyrrolo[2,3-b]pyridin-1-yl)-N—((R)-2-fluoro-3-hydroxy-3-methylbutyl)-4-(((trans)-4-hydroxy-4-methylcyclohexyl)amino)nicotinamide] are 3.6 nM and 143 nM.
In the case of `CC(C)Nc1cc(-n2ccc3cc(C#N)cnc32)ncc1C(=O)NCCNS(C)(=O)=O` [Example 63, 6-(5-cyano-1H-pyrrolo[2,3-b]pyridin-1-yl)-4-(isopropylamino)-N-(2-(methylsulfonamido)ethyl)nicotinamide], in test [1], the IC50 came out at 4.1 nM. Also, the EC50 in test [2] was determined as 12 nM.
Regarding `CC(C)(O)[C@H](F)CNC(=O)c1cnc(-n2ccc3cc(C#N)cnc32)cc1Nc1ccc2ncsc2c1` [Example 64, (R)-4-(benzo[d]thiazol-6-ylamino)-6-(5-cyano-1H-pyrrolo[2,3-b]pyridin-1-yl)-N-(2-fluoro-3-hydroxy-3-methylbutyl)nicotinamide], in test [1], the IC50 was 1.7 nM. In addition, in test [2], the EC50 came out at 93 nM.
In the same order, the values of `CC(C)(O)[C@H](F)CNC(=O)c1cnc(-n2ccc3cc(C#N)cnc32)cc1NCC1(F)CCC1` [Example 65, (R)-6-(5-cyano-1H-pyrrolo[2,3-b]pyridin-1-yl)-N-(2-fluoro-3-hydroxy-3-methylbutyl)-4-(((1-fluorocyclobutyl)methyl)amino) nicotinamide] are 1.5 nM and 100 nM.
Consider `CC(C)(O)[C@H](F)CNC(=O)c1cnc(-n2ccc3cc(C#N)cnc32)cc1Nc1cccc(C#N)c1` [Example 66, (R)-6-(5-cyano-1H-pyrrolo[2,3-b]pyridin-1-yl)-4-((3-cyanophenyl)amino)-N-(2-fluoro-3-hydroxy-3-methylbutyl)nicotinamide], for which the IC50 in test [1] was 1.7 nM. In addition, the EC50 in test [2] is 201 nM.
In the same order, the values of `CC(C)(O)[C@H](F)CNC(=O)c1cnc(-n2ccc3cc(C#N)cnc32)cc1Nc1ccc(-n2cccn2)cc1` [Example 67] are 1.7 nM and 102 nM.
On to `CC(C)(O)[C@H](F)CNC(=O)c1cnc(-n2ccc3cc(C#N)cnc32)cc1Nc1ccc(-n2cncn2)cc1` [Example 68], for which the IC50 in test [1] was determined as 2.1 nM. In addition, the EC50 in test [2] was found to be 30 nM.
Consider `Cn1nnnc1-c1ccc(Nc2cc(-n3ccc4cc(C#N)cnc43)ncc2C(=O)NC[C@@H](F)C(C)(C)O)cc1` [Example 69, (R)-6-(5-cyano-1H-pyrrolo[2,3-b]pyridin-1-yl)-N-(2-fluoro-3-hydroxy-3-methylbutyl)-4-((4-(1-methyl-1H-tetrazol-5-yl)phenyl)amino)nicotinamide], for which the IC50 in test [1] is 1.3 nM. In addition, in test [2], the EC50 amounted to 50 nM.
With `CC(C)Nc1cc(-n2ccc3cc(C#N)cnc32)ncc1C(=O)NCC(=O)NC1CCS(=O)(=O)C1` (centres unmarked) [Example 70, 6-(5-cyano-1H-pyrrolo[2,3-b]pyridin-1-yl)-N-(2-((1,1-dioxidotetrahydrothiophen-3-yl)amino)-2-oxoethyl)-4-(isopropylamino)nicotinamide], the IC50 in test [1] stood at 2.8 nM. For the same compound, the EC50 in test [2] turned out to be 210 nM.
Turning to `CC(C)(O)[C@H](F)CNC(=O)c1cnc(-n2ccc3cc(C#N)cnc32)cc1Nc1cccc(CO)c1` [Example 71, (R)-6-(5-cyano-1H-pyrrolo[2,3-b]pyridin-1-yl)-N-(2-fluoro-3-hydroxy-3-methylbutyl)-4-((3-(hydroxymethyl)phenyl)amino)nicotinamide], the IC50 in test [1] was 1.5 nM. The EC50 in test [2] came out at 28 nM.
For `CC(F)[C@H](C)Nc1cc(-n2ccc3cc(C#N)cnc32)ncc1C(=O)NC[C@@H](F)C(C)(C)O` (stereo partly drawn) [Example 72, 6-(5-cyano-1H-pyrrolo[2,3-b]pyridin-1-yl)-N—((R)-2-fluoro-3-hydroxy-3-methylbutyl)-4-(((2S)-3-fluorobutan-2-yl)amino) nicotinamide], in test [1], the IC50 worked out at 2 nM. The EC50 in test [2] is 72 nM.
In the same order, the values of `CC(C)Nc1cc(-n2ccc3cc(C#N)cnc32)ncc1C(=O)NC1CCc2nc(N)sc2C1` (centres unmarked) [Example 73, N-(2-amino-4,5,6,7-tetrahydrobenzo[d]thiazol-6-yl)-6-(5-cyano-1H-pyrrolo[2,3-b]pyridin-1-yl)-4-(isopropylamino)nicotinamide] are 13.1 nM and 189 nM.

One may read the IC50 as the concentration that gives 50% inhibition. Broadly, the EC50 is the concentration that produces a half-maximal response.
